The text below walks through data of paper PMC12814185, “Receptor-Mediated Shuttling of a D‑Amino Acid Peptide Achieves High Nanomolar Cytosolic Concentrations” (Journal of the American Chemical Society, 2025).

Where two headings read alike, the source gives them in different places. Where a SMILES comes first, the peptide text is derived from it. Bridges are numbered along the chain shown (N, C = ends). Roman numbers before positions name the chains, in order. Triazole bridges read from a SMILES are 1,4-linked. Where no end group is shown, it is not given here. [ ]: non-standard residue; d: D form. Lys(N3) = [N-]=[N+]=NCCCC[C@H](N)C(=O)O; Cit = NC(=O)NCCC[C@H](N)C(=O)O; d(hCys) = N[C@H](CCS)C(=O)O; PEG3 = NCCOCCOCCOCCC(=O)O; Pra = C#CC[C@H](N)C(=O)O

The Kd is the concentration at which binding is half-saturated.

Data set [1] concerns the target T1, recombinant human GST-MDM2 (Homo sapiens, UniProt Q00987).
T1 construct: purchased R&D Systems
Briefly: Fluorescence polarization binding of Cy5-labeled peptides to MDM2. The following applies: 20 nM Cy5-labeled peptide, FP buffer pH 7.4, 30 min room temperature; performed twice in technical triplicates. (In fluorescence polarisation assays a small probe gives low polarisation when free and higher when bound to something large.)
Description: (B) Fluorescence polarization measurement of 20 nM Cy5-labeled peptides binding to recombinant human GST-MDM2.
20 nM of Cy5-labeled peptides were added to dilutions of human MDM2 (Recombinant Human GST -
MDM2/HDM2, R&D Systems) in FP buffer (50 mM tris(hydroxymethyl)aminomethane (Tris, Carl Roth),
150 mM sodium chloride (Sigma), 1 mM EDTA (Sigma), 0.01% (v/v) Tween20 (Sigma), pH 7.4) and
incubated for 30 min at room temperature. Fluorescence polarization was then measured in a Tecan
Spark plate reader (λex = 640 nm, λem = 670 nm). Measurements were performed twice in technical
triplicates. Data was then fit with Prism 10 (GraphPad) using non-linear regression with the following
solution to the quadratic binding equation 1 to obtain Kd:
𝐹𝑃 = 𝐹𝑃 + (𝐹𝑃 − 𝐹𝑃 ) ∗ 𝑐 + 𝑐 + 𝐾 − 𝑝𝑒𝑝𝑡𝑖𝑑𝑒 𝑀𝐷𝑀2 𝑑 𝑝𝑒𝑝𝑡𝑖𝑑𝑒 𝑀𝐷𝑀2

Data set [2] addresses T2, CMKLR1 (Homo sapiens, UniProt Q99788).
T2 construct: expressed in transfected cells; host or cells: COS-7 (stably transfected, CMKLR1-eYFP + Δ6Gαqi4myr)
T2 sequence (Q99788 1-373): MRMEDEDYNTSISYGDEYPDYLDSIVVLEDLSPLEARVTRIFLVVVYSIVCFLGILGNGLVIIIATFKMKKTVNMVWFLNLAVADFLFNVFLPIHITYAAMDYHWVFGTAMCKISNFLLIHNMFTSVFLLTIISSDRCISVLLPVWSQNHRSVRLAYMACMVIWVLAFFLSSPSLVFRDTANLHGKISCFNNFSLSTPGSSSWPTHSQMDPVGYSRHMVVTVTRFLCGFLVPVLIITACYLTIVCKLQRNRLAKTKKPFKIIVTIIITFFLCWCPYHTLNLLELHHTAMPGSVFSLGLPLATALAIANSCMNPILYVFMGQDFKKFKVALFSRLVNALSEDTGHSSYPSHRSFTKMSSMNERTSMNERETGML
As to the kind of experiment: Ca2+ flux assay in COS-7_CMKLR1-eYFP_Δ6Gαqi4myr cells. The format is cell-based. The following applies: maximum signal over baseline normalized to peptide 1, at least two independent experiments in duplicate.
Description: (C) Activity of the cyclic chemerin-9 (cC9) derivatives at CMKLR1 tested in a Ca^2+ flux assay. Data points represent the mean ± SEM of at least two independent experiments performed in duplicate.
Calcium flux assay was performed with cells expressing CMKLR1 and the chimeric G protein Δ6Gαqi4myr.
The stably transfected COS-7_CMKLR1-eYFP_ Δ6Gαqi4myr cells were seeded at 25,000 cells per well into poly-ᴅ-lysine-coated 96-well plates (black µCLEAR, Greiner). The next day, cells were incubated with 2.3 µM Fluo-2-AM (Abcam) and 0.06% (v/v) Pluronic-F127 (Sigma) in assay buffer (2.5 mM probenecid (Sigma), 20 mM 4-(2-hydroxyethyl)-1-piperazineethanesulfonic acid (HEPES, Sigma) in Hanks' Balanced Salt Solution (HBSS, Biowest), pH 7.5) for 1 h. This solution was replaced by assay buffer, and basal Ca2+ signal (λex = 485 nm, λem = 525 nm) was measured for 20 s with a Flexstation 3 plate reader (Molecular Devices). Peptide dilutions were added, and the Ca2+ response was measured for 40 s. The maximum signal over baseline was calculated and normalized to peptide 1 (N3-cC9). Non-linear regression was performed using Prism 10 (GraphPad). Experiments were performed in technical duplicates and at least

The test system of data set [3] is HEK293_CMKLR1-eYFP cells. Briefly: Resazurin based cell viability assay, peptides. The following applies: 72 h incubation. Here is the method:
page 3: […] 15% FCS. Calcium flux assay Calcium flux assay was performed with cells expressing CMKLR1 and the chimeric G protein […]. The stably transfected COS-7_CMKLR1-eYFP_ […] were seeded at 25,000 cells per well into poly-ᴅ-lysine-coated 96-well plates (black μCLEAR, Greiner). The next day, cells were incubated with […] (Sigma), 20 mM 4-(2-hydroxyethyl)-1-piperazineethanesulfonic acid (HEPES, Sigma) in Hanks' Balanced […] This solution was replaced by assay buffer, and basal Ca2+ signal (λex = 485 nm, λem = 525 nm) was measured for 20 s with a Flexstation 3 plate reader (Molecular Devices). Peptide dilutions were added, and the Ca2+ response was measured for 40 s. The maximum signal over baseline was calculated and normalized to peptide 1 (N3-cC9). Non-linear regression was performed using Prism 10 (GraphPad). Experiments were performed in technical duplicates and at least twice. Cell viability assay HEK293 and HEK293_CMKLR1-eYFP cells were seeded at 15,000 cells per well into poly-ᴅ-lysine coated 96-well plates (black μCLEAR, Greiner). […] Cells were then washed and a resazurin-based cell viability assay was performed. […] (1:1) + 15% FBS without phenol red was added to the cells. […] using the fluorescence of resorufin (λex = 550 nm, λem = 595 nm). Data was normalized to cells incubated without peptide (100%) and cells treated with ethanol for 3 min before resazurin addition (0%). Experiments were performed in technical triplicates and at least twice. Fluorescence microscopy Peptide internalization was evaluated by fluorescence microscopy. […] the cells and incubated for 6 h. […] All shown microscopy images are representative of at least two independent experiments. […] Resazurin based cell viability assay of HEK293 and HEK293_CMKLR1-eYFP cells after 72 h incubation with the p53/MDM2 inhibitor Nutlin-3a. […] 100 50 2Cy 3Cy 4Cy 0 -8 -7 -6 -5 -4 […]], log Figure S4. Resazurin based cell viability assay of HEK293_CMKLR1-eYFP cells after 72 h incubation with the PMIγ peptides discussed in this work. Mean ± SEM from two independent experiments performed in triplicates. 15 […]
(In general: Alamar Blue is a resazurin reagent that responds to reducing activity.)

For data set [4], the target named is T3, p53/MDM2 interaction (Homo sapiens, UniProt Q00987).
T3 construct: host or cells: HEK293 and HEK293_CMKLR1-eYFP
T3 sequence (Q00987 whole entry): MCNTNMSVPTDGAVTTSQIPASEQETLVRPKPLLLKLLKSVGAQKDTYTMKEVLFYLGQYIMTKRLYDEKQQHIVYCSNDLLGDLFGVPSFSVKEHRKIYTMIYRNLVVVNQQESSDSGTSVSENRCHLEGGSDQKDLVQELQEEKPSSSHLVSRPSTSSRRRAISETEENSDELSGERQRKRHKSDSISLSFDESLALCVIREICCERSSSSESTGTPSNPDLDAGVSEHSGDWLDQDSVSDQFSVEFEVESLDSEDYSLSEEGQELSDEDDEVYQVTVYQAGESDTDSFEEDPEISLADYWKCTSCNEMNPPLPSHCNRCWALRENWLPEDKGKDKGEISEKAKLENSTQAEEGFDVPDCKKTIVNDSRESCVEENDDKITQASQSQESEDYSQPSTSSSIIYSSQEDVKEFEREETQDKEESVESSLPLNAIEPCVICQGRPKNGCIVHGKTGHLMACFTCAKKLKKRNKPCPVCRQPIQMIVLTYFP
As to the kind of experiment: Inhibition of intracellular p53-HaloTag/NanoLuc-MDM2 BRET. The format is cell-based. The following applies: unlabeled peptides, 72 h. Here is the method: Peptides were incubated on HEK293 and HEK293_CMKLR1-eYFP cells for 72 h, before BRET was measured. Nutlin-3a was incubated on HEK293 cells for 24 h before BRET was measured. Mean ± SEM from two independent experiments performed in duplicate. […]
dividing the Cy5-signal (670±30 nm) by the NanoLuc signal (450±20 nm). netBRET was calculated by subtracting the BRET ratio from cells which were incubated without peptide. To calculate the CMKLR1-specific effect, ΔBRET was calculated by subtracting the netBRET value obtained in cells without CMKLR1 from netBRET obtained in cells with CMKLR1. After the initial readout, a kinetic BRET displacement was performed with the same cells. For this, luminescence was measured every 22 s. After 3 min, 10 µM of the small molecule MDM2 antagonist Nutlin-3a (Sigma) was added to the cells and BRET was measured for another 7 min. Experiments were performed in technical duplicates and three independent times. […]
were then incubated with dilutions of unlabeled PMIγ -peptides for 72 h or with Nutlin-3a for 24 h. […] After 10 min incubation, luminescence was measured, and BRET ratio was calculated by dividing the TMR-signal (600±50 nm) by the NanoLuc signal (450±20 nm). netBRET was calculated and normalized to cells without peptide (100%) and cells which were not label ed with HaloTag TMR Ligand (0%). […]
Background: In BRET a luciferase serves as donor, and the signal depends on an acceptor being close.

For data set [5] the following is noted: printed as (reference) in the column measured D; calibration standard of the focal volume; source not shown; cited from earlier work. From the text:
Descriptive statistics of fluorescence correlation spectroscopy (FCS) data from Figure 3. Measurements were obtained in stably transfected HEK293_CMKLR1-eYFP cells as well as endogenously CMKLR1-expressing HMEC-1 and THP-1 cells. SD – standard deviation, GSD – geometric SD factor, IQR – interquartile range applied mean ± SD geometric median (IQR) cell line N° name concentration [nM] mean *÷ GSD [nM] [nM] [nM] HEK29 ...

Setting [6] is: read-out: pEC50 ± SEM (converted).

T1 sequence (Q00987 whole entry): as above

Take `C#CC[C@H](NC(=O)CCOCCOCCOCCNC(=O)[C@H](CCCNC(N)=O)NC(=O)[C@@H](NC(=O)[C@H](CCC(=O)O)NC(=O)CNC(=O)[C@@H](CCCNC(=N)N)NC(=O)[C@@H](CC(C)C)NC(=O)[C@@H](CC(C)C)NC(=O)[C@@H](C)NC(=O)[C@@H](CCC(=O)O)NC(=O)[C@@H](Cc1ccccc1)NC(=O)[C@@H](C)NC(=O)[C@@H](CC(C)C)NC(=O)[C@H]1CCCN1C(=O)[C@@H](Cc1c[nH]c2ccccc12)NC(=O)[C@@H](Cc1c[nH]c2ccccc12)NC(=O)[C@@H](CC(=O)O)NC(=O)CCOCCOCCOCCNC(=O)[C@@H](CCCNC(=N)N)NC(=O)[C@@H](CCCNC(=N)N)NC(=O)[C@@H](CCCNC(=N)N)NC(=O)[C@@H](CCCNC(=N)N)NC(=O)[C@@H](CCCNC(=N)N)NC(=O)[C@@H](CCCNC(=N)N)NC(=O)[C@@H](CCCNC(=N)N)NC(=O)[C@@H](CCCNC(=N)N)NC(=O)[C@@H](CCCNC(=N)N)NC(=O)CCOCCOCCOCCNC(=O)CCCCC[N+]1=C(C=CC=CC=C2N(C)c3ccc(S(=O)(=O)O)cc3C2(C)C)C(C)(C)c2cc(S(=O)(=O)[O-])ccc21)C(C)C)C(N)=O` [4Cy]: in data set [1], the Kd amounted to 57.1 ± 21.8 nM. In the case of `CC(=O)N[C@@H](CCCCN=[N+]=[N-])C(=O)N[C@@H](Cc1ccc(O)cc1)C(=O)N[C@@H](Cc1ccccc1)C(=O)N1CCC[C@H]1C(=O)N[C@@H]1CCSSC[C@@H](C(=O)O)NC(=O)[C@H](Cc2ccccc2)NC(=O)[C@H](C)NC(=O)[C@H](Cc2ccccc2)NC(=O)[C@H](CCC(N)=O)NC1=O` [compound 1] (Ac-[Lys(N3)]YFP[d(hCys)]QFAFC-OH; disulfide 5-10), the EC50 in data set [2] (setting [6]) is 3.47 nM. Consider `CC(=O)N[C@@H](CCCCn1cc(C[C@H](NC(=O)CCOCCOCCOCCNC(=O)[C@H](CCCNC(N)=O)NC(=O)[C@@H](NC(=O)[C@H](CCC(=O)O)NC(=O)CNC(=O)CNC(=O)[C@@H](CCCNC(=N)N)NC(=O)[C@@H](CC(C)C)NC(=O)[C@@H](CC(C)C)NC(=O)[C@@H](C)NC(=O)[C@@H](CCC(=O)O)NC(=O)[C@@H](Cc2ccccc2)NC(=O)[C@@H](C)NC(=O)[C@@H](CC(C)C)NC(=O)[C@H]2CCCN2C(=O)[C@@H](Cc2c[nH]c3ccccc23)NC(=O)[C@@H](Cc2c[nH]c3ccccc23)NC(=O)[C@H](N)CC(=O)O)C(C)C)C(N)=O)nn1)C(=O)N[C@@H](Cc1ccc(O)cc1)C(=O)N[C@@H](Cc1ccccc1)C(=O)N1CCC[C@H]1C(=O)N[C@@H]1CCSSC[C@@H](C(=O)O)NC(=O)[C@H](Cc2ccccc2)NC(=O)[C@H](C)NC(=O)[C@H](Cc2ccccc2)NC(=O)[C@H](CCC(N)=O)NC1=O` [compound 2] (I: H-[dD][dW][dW][dP][dL][dA][dF][dE][dA][dL][dL][dR]GGEV[Cit][PEG3][Pra]-NH2 / II: Ac-[Lys(N3)]YFP[d(hCys)]QFAFC-OH; triazole I:19-II:1; disulfide II:5-II:10; N-terminus assumed), for which the cytotoxicity result in data set [3] is listed as “no signs of cytotoxicity”. Further, in data set [4], the “extent of competition of the p53/MDM2 interaction” value is reported as “neither achieved full competition”. The “displacement of NanoLuc-MDM2/p53-HaloTag BRET” value in data set [4] (HEK293 versus HEK293_CMKLR1-eYFP) is “CMKLR1-selective effects at extracellular concentrations above 1 μM”. In the case of “I: GSVSHHHHHHGGHHHH[PEG3][dD][dW][dW][dP][dL][dA][dF][dE][dA][dL][dL][dR]GEV[Cit][PEG3][Pra]-NH2 / II: Ac-[Lys(N3)]YFP[d(hCys)]QFAFC (triazole I:35-II:1; disulfide II:5-II:10) [compound 3]”, the values for the EC50 in data set [2] (read-out: EC50) and in data set [2] (setting [6]) were 70.6 nM and 70.8 nM, respectively. Besides, the cytotoxicity result in data set [3] was “tolerated slightly worse at concentrations above 1 μM”. As for sulfo-cyanine5 [sulfo-Cy5], in data set [5], the “D in solution, reference” value is recorded as 341.6 µm2/s.
